For test [1], the target named is T1, human sphingosine-1-phosphate receptor 1 (S1P1) (Homo sapiens, UniProt P21453). Nature of the test: β-Arrestin2 recruitment assay (PathHunter), S1P1 CHO-K1 cells. In kind it is cell-based. Particulars: for Emax: CHO-K1, efficacy normalized to maximum efficacy of fingolimod, read-out: hS1P1 B-arrestin2 SPAN; for EC50: β-arrestin2 recruitment, S1P1, read-out: hS1P1 B-arrestin2 pEC50 (converted). The procedure, abridged: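 CHO-K1 cells co-expressing EA-β-arrestin2 and ProLink-tagged human S1P1 plated overnight, then stimulated 60 min at 37 °C. Enzyme-fragment complementation (β-galactosidase) detected after 1 h at room temperature by luminescence; values normalized to fingolimod.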
Target sequence in this assay (P21453 whole entry, the tested form may be a part): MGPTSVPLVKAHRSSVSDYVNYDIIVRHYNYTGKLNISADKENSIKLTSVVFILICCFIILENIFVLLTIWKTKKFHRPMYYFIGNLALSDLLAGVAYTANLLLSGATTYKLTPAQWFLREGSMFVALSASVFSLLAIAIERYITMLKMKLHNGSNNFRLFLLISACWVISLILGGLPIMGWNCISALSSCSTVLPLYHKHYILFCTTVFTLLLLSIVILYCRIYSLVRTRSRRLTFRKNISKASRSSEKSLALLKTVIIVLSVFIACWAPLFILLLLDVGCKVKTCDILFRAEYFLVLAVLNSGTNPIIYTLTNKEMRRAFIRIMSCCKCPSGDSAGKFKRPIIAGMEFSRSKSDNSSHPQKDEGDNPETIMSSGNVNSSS
Target sequence in this assay (P32121 whole entry partner, the tested form may be a part): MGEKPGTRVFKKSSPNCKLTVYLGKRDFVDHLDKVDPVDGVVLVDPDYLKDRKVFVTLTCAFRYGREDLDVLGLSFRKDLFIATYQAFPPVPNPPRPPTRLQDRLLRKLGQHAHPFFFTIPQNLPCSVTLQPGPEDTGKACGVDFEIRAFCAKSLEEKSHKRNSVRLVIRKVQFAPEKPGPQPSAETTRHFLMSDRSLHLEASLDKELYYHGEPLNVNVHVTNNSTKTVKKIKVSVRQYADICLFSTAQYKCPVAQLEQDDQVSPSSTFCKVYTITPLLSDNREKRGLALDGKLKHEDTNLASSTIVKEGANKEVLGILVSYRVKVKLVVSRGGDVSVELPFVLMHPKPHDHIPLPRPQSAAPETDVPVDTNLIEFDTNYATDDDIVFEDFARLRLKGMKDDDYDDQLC

The target of test [2] is T1, human sphingosine-1-phosphate receptor 1 (S1P1). Kind of test: Inhibition of cAMP production (HTRF cAMP HiRange), S1P1 CHO-K1 cells. The test is classed as cell-based. Particulars: for Emax: CHO-K1, efficacy normalized to maximum efficacy of fingolimod, read-out: hS1P1 CAMP SPAN; for EC50: inhibition of cAMP production, S1P1, read-out: hS1P1 CAMP pEC50 (converted). The procedure, abridged:
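CHO-K1 cells co-expressing human S1P1 (C-terminal ProLink tag) and EA-β-arrestin2, plated overnight; after 30 min compound incubation at 37 °C, intracellular cAMP measured by HTRF TR-FRET following 1 h at room temperature. Values normalized to fingolimod.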
Target sequence in this assay (P21453 whole entry, the tested form may be a part): as the sequence (P21453 whole entry, the tested form may be a part) above

We go through 25 molecules from patent publication US20230114241A1, “METHODS OF TREATING EPILEPSY USING THE SAME” (Trevena, Inc., priority 2019, published 2023).

On to `COc1cc(NC(C)=O)ccc1-c1noc(-c2ccc3nonc3c2)n1` [Compound 533, N-{4-[5-(2,1,3-benzoxadiazol-5-yl)-1,2,4-oxadiazol-3-yl]-3-methoxy-phenyl}acetamide], for which, in test [1], the Emax is less than 75% and the EC50 is more than 10 µM. In test [2], the Emax is less than 75% and the EC50 is more than 0.316 µM.

Consider `CC1CC(=O)c2ccc(-c3nc(-c4cccnc4)no3)cc2O1` (stereo not shown) [Compound 535, 2-methyl-7-[3-(pyridin-3-yl)-1,2,4-oxadiazol-5-yl]-3,4-dihydro-2H-1-benzopyran-4-one], for which, in test [1], the Emax was less than 75% and the EC50 was less than 10 µM. Moreover, in test [2], the Emax was less than 75% and the EC50 was more than 0.316 µM.

Consider `CC1CC(=O)c2ccc(-c3nc(-c4ccncc4)no3)cc2O1` (stereo not shown) [Compound 536, 2-methyl-7-[3-(pyridin-4-yl)-1,2,4-oxadiazol-5-yl]-3,4-dihydro-2H-1-benzopyran-4-one], for which, in test [1], the Emax was less than 75% and the EC50 is less than 10 µM. In test [2], the Emax was less than 75% and the EC50 was more than 0.316 µM.

In the case of `CCC1(CC)CC(=O)c2cc(-c3nc(-c4cncc(C(N)=O)c4)no3)ccc2O1` [Compound 537, 5-(5-(2,2-diethyl-4-oxochroman-6-yl)-1,2,4-oxadiazol-3-yl)nicotinamide], in test [1], the Emax was less than 75% and the EC50 is less than 10 µM. In test [2], the Emax was more than 75% and the EC50 is less than 0.316 µM.

For the molecule `CCC1(CC)CC(=O)c2cc(-c3nc(-c4cncc(NC(C)=O)c4)no3)ccc2O1` [Compound 538, N-(5-(5-(2,2-diethyl-4-oxochroman-6-yl)-1,2,4-oxadiazol-3-yl)pyridin-3-yl)acetamide], in test [1], the Emax was less than 75% and the EC50 was less than 10 µM. Also, in test [2], the Emax was less than 75% and the EC50 was less than 0.316 µM.

Consider `CCC1(CC)CC(=O)c2cc(-c3nc(-c4ccc5[nH]c(=O)[nH]c5c4)no3)ccc2O1` [Compound 539, 5-(5-(2,2-diethyl-4-oxochroman-6-yl)-1,2,4-oxadiazol-3-yl)-1H-benzo[d]imidazol-2(3H)-one], for which, in test [1], the Emax is less than 75% and the EC50 was less than 10 µM. In addition, in test [2], the Emax was less than 75% and the EC50 was less than 0.316 µM.

For `Cc1nccnc1-c1nc(-c2ccc3c(c2)nnn3CC(C)(C)CO)no1` [Compound 540, 2,2-dimethyl-3-(5-(5-(3-methylpyrazin-2-yl)-1,2,4-oxadiazol-3-yl)-1H-benzo[d] [1,2,3]triazol-1-yl)propan-1-ol], in test [1], the Emax is less than 75% and the EC50 is more than 10 µM. In addition, in test [2], the Emax is less than 75% and the EC50 was more than 0.316 µM.

On to `Cc1ccncc1-c1nc(-c2ccc3c(c2)nnn3CC(C)(C)CO)no1` [Compound 541, 2,2-dimethyl-3-(5-(5-(4-methylpyridin-3-yl)-1,2,4-oxadiazol-3-yl)-1H-benzo[d] [1,2,3]triazol-1-yl)propan-1-ol], for which, in test [1], the Emax was less than 75% and the EC50 is more than 10 µM. Also, in test [2], the Emax is less than 75% and the EC50 was more than 0.316 µM.

In the case of `CC(C)n1nnc2cc(-c3cc(-c4ccccc4F)c[nH]3)ccc21` [Compound 542, 5-[4-(2-fluorophenyl)-1H-pyrrol-2-yl]-1-(propan-2-yl)-1H-1,2,3-benzotriazole], in test [1], the Emax is less than 75% and the EC50 is less than 10 µM. For the same molecule, in test [2], the Emax is less than 75% and the EC50 was more than 0.316 µM.

Turning to `CC(C)n1nnc2cc(-c3cc(-c4ccccc4)n(C)c3)ccc21` [Compound 544, 5-(1-methyl-5-phenyl-1H-pyrrol-3-yl)-1-(propan-2-yl)-1H-1,2,3-benzotriazole], in test [1], the Emax was less than 75% and the EC50 is less than 10 µM. Besides, in test [2], the Emax was less than 75% and the EC50 is more than 0.316 µM.

Take `CCC1(CC)CC(=O)c2cc(-c3nc(-c4ccc(F)nc4)no3)ccc2O1` [Compound 546, 2,2-diethyl-6-(3-(6-fluoropyridin-3-yl)-1,2,4-oxadiazol-5-yl)chroman-4-one]: in test [1], the Emax is less than 75% and the EC50 is more than 10 µM. For the same molecule, in test [2], the Emax is less than 75% and the EC50 was more than 0.316 µM.

Take `CCC1(CC)CC(=O)c2cc(-c3nc(-c4cccnc4F)no3)ccc2O1` [Compound 547, 2,2-diethyl-6-(3-(2-fluoropyridin-3-yl)-1,2,4-oxadiazol-5-yl)chroman-4-one]: in test [1], the Emax is more than 75% and the EC50 was less than 10 µM. In test [2], the Emax is more than 75% and the EC50 is less than 0.316 µM.

Take `CCC1(CC)CC(=O)c2cc(-c3nc(-c4ccc(C(F)(F)F)nc4)no3)ccc2O1` [Compound 548, 2,2-diethyl-6-(3-(6-(trifluoromethyl)pyridin-3-yl)-1,2,4-oxadiazol-5-yl)chroman-4-one]: the Emax in test [1] and in test [2] was less than 75% each time. The EC50 is more than 10 µM in test [1] and more than 0.316 µM in test [2].

For the molecule `CCC1(CC)CC(=O)c2cc(-c3nc(-c4cnccc4C)no3)ccc2O1` [Compound 549, 2,2-diethyl-6-(3-(4-methylpyridin-3-yl)-1,2,4-oxadiazol-5-yl)chroman-4-one], the Emax in test [1] and in test [2] was more than 75% throughout. The EC50 in test [1] is less than 10 µM; in test [2], less than 0.316 µM.

With `CCC1(CC)CC(=O)c2cc(-c3nc(-c4ccc(C)nc4)no3)ccc2O1` [Compound 550, 2,2-diethyl-6-(3-(6-methylpyridin-3-yl)-1,2,4-oxadiazol-5-yl)chroman-4-one], in test [1], the Emax was less than 75% and the EC50 is less than 10 µM. In test [2], the Emax is more than 75% and the EC50 is more than 0.316 µM.

Regarding `CCC1(CC)CC(=O)c2cc(-c3nc(-c4cncc(F)c4)no3)ccc2O1` [Compound 551, 2,2-diethyl-6-(3-(5-fluoropyridin-3-yl)-1,2,4-oxadiazol-5-yl)chroman-4-one], the Emax in test [1] was less than 75%; in test [2], more than 75%. The EC50 in test [1] was less than 10 µM; in test [2], less than 0.316 µM.

For the molecule `CCC1(CC)CC(=O)c2cc(-c3ncc(-c4ccnc(O)c4)cn3)ccc2O1` [Compound 552, 2,2-diethyl-6-(5-(2-hydroxypyridin-4-yl)pyrimidin-2-yl)chroman-4-one], the Emax in test [1] and in test [2] was less than 75% each time. The EC50 in test [1] was more than 10 µM; in test [2], more than 0.316 µM.

Regarding `CCC1(CC)CC(=O)c2cc(-c3nc(-c4cccc(OC)n4)no3)ccc2O1` [Compound 553, 2,2-diethyl-6-[3-(6-methoxypyridin-2-yl)-1,2,4-oxadiazol-5-yl]-3,4-dihydro-2H-1-benzopyran-4-one], in test [1], the Emax was less than 75% and the EC50 is less than 10 µM. For the same molecule, in test [2], the Emax is more than 75% and the EC50 is more than 0.316 µM.

Regarding `CCC1(CC)CC(=O)c2cc(-c3nc(-c4ccnc(C(N)=O)c4)no3)ccc2O1` [Compound 555, 4-(5-(2,2-diethyl-4-oxochroman-6-yl)-1,2,4-oxadiazol-3-yl)picolinamide], in test [1], the Emax is less than 75% and the EC50 is less than 10 µM. Moreover, in test [2], the Emax is less than 75% and the EC50 is less than 0.316 µM.

On to `CCC1(CC)CC(=O)c2cc(-c3nc(-c4ccnc(NS(C)(=O)=O)c4)no3)ccc2O1` [Compound 556, N-(4-(5-(2,2-diethyl-4-oxochroman-6-yl)-1,2,4-oxadiazol-3-yl)pyridin-2-yl)methanesulfonamide], for which, in test [1], the Emax is less than 75% and the EC50 is less than 10 µM. Besides, in test [2], the Emax is more than 75% and the EC50 is less than 0.316 µM.

For `CCC1(CC)CC(=O)c2cc(-c3nc(-c4cncc(C(F)(F)F)c4)no3)ccc2O1` [Compound 557, 2,2-diethyl-6-(3-(5-(trifluoromethyl)pyridin-3-yl)-1,2,4-oxadiazol-5-yl)chroman-4-one], in test [1], the Emax was less than 75% and the EC50 is less than 10 µM. For the same molecule, in test [2], the Emax was more than 75% and the EC50 was more than 0.316 µM.

For `CCC1(CC)CC(=O)c2cc(-c3nc(-c4cnccc4C(F)(F)F)no3)ccc2O1` [Compound 558, 2,2-diethyl-6-(3-(4-(trifluoromethyl)pyridin-3-yl)-1,2,4-oxadiazol-5-yl)chroman-4-one], in test [1], the Emax was more than 75% and the EC50 was less than 10 µM. For the same molecule, in test [2], the Emax is more than 75% and the EC50 was less than 0.316 µM.

`CCC1(CC)CC(=O)c2cc(-c3noc(-c4cccnc4)n3)ccc2O1` [Compound 559, 2,2-diethyl-6-(5-(pyridin-3-yl)-1,2,4-oxadiazol-3-yl)chroman-4-one]: the Emax in test [1] and in test [2] was more than 75% each time. In addition, the EC50 in test [1] is less than 10 µM; in test [2], less than 0.316 µM.

For the molecule `Cc1nc2cc(-c3nnc(-c4ccc(NC(C)C)c(C#N)c4)o3)ccc2[nH]1` [Compound 560, 5-[5-(2-methy1-1H-1,3-benzodiazol-5-yl)-1,3,4-oxadiazol-2-yl]-2-[(propan-2-yl)amino]benzonitrile], in test [1], the Emax was more than 75% and the EC50 is less than 10 µM. For the same molecule, in test [2], the Emax is more than 75% and the EC50 is less than 0.316 µM.

For the molecule `Cc1nc2cc(-c3nnc(-c4ccc(NCC(F)F)c(C#N)c4)o3)ccc2[nH]1` [Compound 561, 2-[(2,2-difluoro-ethyl)amino]-5-[5-(2-methyl-1H-1,3-benzodiazol-5-yl)-1,3,4-oxadiazol-2-yl]benzonitrile], the Emax in test [1] is less than 75%; in test [2], more than 75%. For the same molecule, the results for the EC50 in test [1] and in test [2] were less than 10 µM and less than 0.316 µM, respectively.
